# Assay results reported in ChEMBL document CHEMBL4261496, “Targeting quinolone- and aminocoumarin-resistant bacteria with new gyramide analogs that inhibit DNA gyrase” (Medchemcomm, 2017).
# Active and inactive are the calls of the source. The calls are words filed in the database; no cut-off is given here.
# Key:
# [1] = Ratio of MIC for Escherichia coli BW25113 to MIC for Escherichia coli JW5503; type: functional
# Escherichia coli [2] = test: Antibacterial activity against Escherichia coli JW5503 overexpressing gyrB at 51 ug/ml in presence of IPTG induction after 16 hrs by broth microdilution method; type: functional, organism-based
# Escherichia coli [3] = test: Antibacterial activity against Escherichia coli JW5503 transfected with empty vector in absence of IPTG induction after 16 hrs by broth microdilution method; type: functional; details: JW5503, 16 h
# Escherichia coli [4] = test: Antibacterial activity against novobiocin-resistant Escherichia coli CC5 harboring GyrB Arg136His mutant after 16 to 18 hrs in presence of PAbetaN by broth microdilution method; type: functional
# Escherichia coli [5] = test: Antibacterial activity against Escherichia coli HB101 after 16 to 18 hrs in presence of PAbetaN by broth microdilution method; type: functional
# Escherichia coli [6] = test: Antibacterial activity against Escherichia coli JW5503 after 16 to 18 hrs by broth microdilution method; type: functional
# Escherichia coli [7] = test: Antibacterial activity against Escherichia coli JW5503 overexpressing gyrB in presence of IPTG induction after 16 hrs by broth microdilution method; type: functional; details: JW5503, 16 h
# Escherichia coli [8] = test: Antibacterial activity against novobiocin-resistant Escherichia coli CC7 harboring GyrB Arg136Ser mutant after 16 to 18 hrs in presence of PAbetaN by broth microdilution method; type: functional
# Escherichia coli [9] = test: Antibacterial activity against novobiocin-resistant Escherichia coli LE316 harboring GyrB Arg136Val mutant after 16 to 18 hrs in presence of PAbetaN by broth microdilution method; type: functional
# Escherichia coli [10] = test: Antibacterial activity against Escherichia coli JW5503 overexpressing gyrA/gyrB in presence of IPTG induction after 16 hrs by broth microdilution method; type: functional; details: JW5503, 16 h
# Escherichia coli [11] = test: Antibacterial activity against Escherichia coli HB101 after 16 to 18 hrs by broth microdilution method; type: functional
# Escherichia coli [12] = test: Antibacterial activity against Escherichia coli JW5503 transfected with empty vector in presence of IPTG induction after 16 hrs by broth microdilution method; type: functional; details: JW5503, 16 h
# Edwardsiella tarda = test: Antibacterial activity against Edwardsiella tarda clinical isolate after 16 to 18 hrs by broth microdilution method; type: functional
# Escherichia coli [13] = test: Ratio of MIC for gyramide-resistant Escherichia coli JW5503 harboring GyrA Ser97Pro mutant to MIC for Escherichia coli JW5503; type: functional
# Staphylococcus aureus = test: Antibacterial activity against Staphylococcus aureus subsp. aureus clinical isolate after 16 to 18 hrs by broth microdilution method; type: functional
# [14] = test system: Staphylococcus saprophyticus; test: Antibacterial activity against Staphylococcus saprophyticus clinical isolate after 16 to 18 hrs by broth microdilution method; type: functional
# Escherichia coli [15] = test: Ratio of MIC for novobiocin-resistant Escherichia coli LE316 harboring GyrB Arg136Val mutant to MIC for Escherichia coli HB101; type: functional
# Escherichia coli [16] = test: Antibacterial activity against Escherichia coli JW5503 simultaneously overexpressing gyrA/gyrB in presence of IPTG induction after 16 hrs by broth microdilution method; type: functional, organism-based
# Acinetobacter baumannii = test: Antibacterial activity against Acinetobacter baumannii clinical isolate after 16 to 18 hrs by broth microdilution method; type: functional
# Morganella morganii = test: Antibacterial activity against Morganella morganii clinical isolate after 16 to 18 hrs by broth microdilution method; type: functional
# Klebsiella pneumoniae = test: Antibacterial activity against Klebsiella pneumoniae after 16 to 18 hrs by broth microdilution method; type: functional
# Escherichia coli [17] = test: Antibacterial activity against Escherichia coli JW5503 overexpressing gyrA/gyrB in absence of IPTG induction after 16 hrs by broth microdilution method; type: functional; details: JW5503, 16 h
# Bacillus cereus = test: Antibacterial activity against Bacillus cereus after 16 to 18 hrs by broth microdilution method; type: functional
# Escherichia coli [18] = test: Antibacterial activity against gyramide-resistant Escherichia coli JW5503 harboring GyrB Thr508Met mutant after 16 to 18 hrs by broth microdilution method; type: functional
# Escherichia coli [19] = test: Ratio of MIC for novobiocin-resistant Escherichia coli CC7 harboring GyrB Arg136Ser mutant to MIC for Escherichia coli HB101; type: functional
# Bacillus subtilis = test: Antibacterial activity against Bacillus subtilis after 16 to 18 hrs by broth microdilution method; type: functional
# Escherichia coli [20] = test: Ratio of MIC for gyramide-resistant Escherichia coli JW5503 harboring GyrA Phe96Leu mutant to MIC for Escherichia coli JW5503; type: functional
# Escherichia coli [21] = test: Antibacterial activity against gyramide-resistant Escherichia coli JW5503 harboring GyrA Pro35Thr mutant after 16 to 18 hrs by broth microdilution method; type: functional
# Enterococcus faecium = test: Antibacterial activity against Enterococcus faecium after 16 to 18 hrs by broth microdilution method; type: functional
# DNA gyrase = DNA gyrase (Escherichia coli, UniProt P0AES4+P0AES6); test: Inhibition of Escherichia coli DNA gyrase assessed as inhibition of pUC19 supercoiling after 30 mins by agarose gel electrophoresis; type: protein-complex assay
# Escherichia coli [22] = test: Antibacterial activity against Escherichia coli BW25113 after 16 to 18 hrs by broth microdilution method; type: functional
# Escherichia coli [23] = test: Ratio of MIC for gyramide-resistant Escherichia coli JW5503 harboring GyrA His45Tyr mutant to MIC for Escherichia coli JW5503; type: functional
# Escherichia coli [24] = test: Antibacterial activity against Escherichia coli MC4100 after 16 to 18 hrs by broth microdilution method; type: functional
# Escherichia coli [25] = test: Antibacterial activity against ciprofloxacin-resistant Escherichia coli JW5503 harboring GyrA Ser83Leu mutant after 16 to 18 hrs by broth microdilution method; type: functional
# [26] = test system: Staphylococcus epidermidis; test: Antibacterial activity against Staphylococcus epidermidis clinical isolate after 16 to 18 hrs by broth microdilution method; type: functional
# Escherichia coli [27] = test: Ratio of MIC for ciprofloxacin-resistant Escherichia coli JW5503 harboring GyrA Ser83Leu mutant to MIC for Escherichia coli JW5503; type: functional
# Shigella flexneri = test: Antibacterial activity against Shigella flexneri after 16 to 18 hrs by broth microdilution method; type: functional
# Escherichia coli [28] = test: Antibacterial activity against gyramide-resistant Escherichia coli JW5503 harboring GyrA Ser97Pro mutant after 16 to 18 hrs by broth microdilution method; type: functional
# Pseudomonas aeruginosa = test: Antibacterial activity against Pseudomonas aeruginosa after 16 to 18 hrs by broth microdilution method; type: functional
# Escherichia coli [29] = test: Antibacterial activity against gyramide-resistant Escherichia coli JW5503 harboring GyrA Phe96Leu mutant after 16 to 18 hrs by broth microdilution method; type: functional
# Enterococcus faecalis = test: Antibacterial activity against Enterococcus faecalis after 16 to 18 hrs by broth microdilution method; type: functional
# Escherichia coli [30] = test: Antibacterial activity against gyramide-resistant Escherichia coli JW5503 harboring GyrA His45Tyr mutant after 16 to 18 hrs by broth microdilution method; type: functional
# Escherichia coli [31] = test: Ratio of MIC for Escherichia coli MC4100 to MIC for Escherichia coli BAS849; type: functional
# Escherichia coli [32] = test: Ratio of MIC for ciprofloxacin-resistant Escherichia coli JW5503 harboring GyrA Asp87Gly mutant to MIC for Escherichia coli JW5503; type: functional
# Escherichia coli [33] = test: Ratio of MIC for gyramide-resistant Escherichia coli JW5503 harboring GyrB Ser464Phe mutant to MIC for Escherichia coli JW5503; type: functional
# Escherichia coli [34] = test: Antibacterial activity against Escherichia coli JW5503 overexpressing gyrA in absence of IPTG induction after 16 hrs by broth microdilution method; type: functional; details: JW5503, 16 h
# Klebsiella aerogenes = test: Antibacterial activity against Enterobacter aerogenes clinical isolate after 16 to 18 hrs by broth microdilution method; type: functional
# Escherichia coli [35] = test: Antibacterial activity against Escherichia coli UPEC after 16 to 18 hrs by broth microdilution method; type: functional
# Escherichia coli [36] = test: Ratio of MIC for gyramide-resistant Escherichia coli JW5503 harboring GyrA Pro35Thr mutant to MIC for Escherichia coli JW5503; type: functional
# Streptococcus agalactiae = test: Antibacterial activity against Streptococcus agalactiae after 16 to 18 hrs by broth microdilution method; type: functional
# Escherichia coli [37] = test: Antibacterial activity against Escherichia coli BAS849 after 16 to 18 hrs by broth microdilution method; type: functional
# Escherichia coli [38] = test: Ratio of MIC for ciprofloxacin-resistant Escherichia coli JW5503 harboring GyrA Asp87Tyr mutant to MIC for Escherichia coli JW5503; type: functional
# Escherichia coli [39] = test: Antibacterial activity against ciprofloxacin-resistant Escherichia coli JW5503 harboring GyrA Asp87Gly mutant after 16 to 18 hrs by broth microdilution method; type: functional
# [40] = molecular target: DNA gyrase (Escherichia coli) (UniProt P0AES6+P0AES4); test: Inhibition of Escherichia coli DNA gyrase ATPase activity up to 100 uM using DNA as substrate after 60 mins; type: protein-complex assay
# Escherichia coli [41] = test: Ratio of MIC for novobiocin-resistant Escherichia coli CC5 harboring GyrB Arg136His mutant to MIC for Escherichia coli HB101; type: functional
# Streptococcus pyogenes = test: Antibacterial activity against Streptococcus pyogenes after 16 to 18 hrs by broth microdilution method; type: functional
# Escherichia coli [42] = test: Ratio of MIC for ciprofloxacin-resistant Escherichia coli JW5503 harboring GyrB Ser464Phe mutant to MIC for Escherichia coli JW5503; type: functional
# Salmonella typhimurium = test: Antibacterial activity against Salmonella enterica subsp. enterica serovar Typhimurium after 16 to 18 hrs by broth microdilution method; type: functional
# Escherichia coli [43] = test: Antibacterial activity against ciprofloxacin-resistant Escherichia coli JW5503 harboring GyrA Asp87Tyr mutant after 16 to 18 hrs by broth microdilution method; type: functional
# Escherichia coli [44] = test: Antibacterial activity against Escherichia coli JW5503 overexpressing gyrA in presence of IPTG induction after 16 hrs by broth microdilution method; type: functional; details: JW5503, 16 h
structure (smiles),measurement,setting,value
Cc1ccc(F)cc1S(=O)(=O)N[C@@H]1CCN(Cc2ccc(-c3ccccc3)cc2)C1,Ratio,[1],> 1600
CO[C@@H]1[C@@H](OC(N)=O)[C@@H](O)[C@H](Oc2ccc3c(O)c(NC(=O)c4ccc(O)c(CC=C(C)C)c4)c(=O)oc3c2C)OC1(C)C [NOVOBIOCIN],Activity,Escherichia coli [2],inactive
same,MIC,Escherichia coli [3],0.4 µg/mL
same,MIC,Escherichia coli [4],102 µg/mL
same,MIC,Escherichia coli [5],3.2 µg/mL
same,MIC,Escherichia coli [6],0.8 µg/mL
same,MIC,Escherichia coli [7],6.3 µg/mL
same,MIC,Escherichia coli [8],6.4 µg/mL
same,MIC,Escherichia coli [9],12.8 µg/mL
same,MIC,Escherichia coli [10],3.2 µg/mL
same,MIC,Escherichia coli [11],> 100 µg/mL
same,MIC,Escherichia coli [12],0.4 µg/mL
N#Cc1cccc(S(=O)(=O)N[C@@H]2CCN(Cc3ccc(-c4ccccc4)cc3)C2)c1,MIC,Edwardsiella tarda,16 µg/mL
same,Ratio,Escherichia coli [13],10 - 100
same,MIC,Staphylococcus aureus,> 16 µg/mL
same,MIC,[14],> 16 µg/mL
same,Ratio,Escherichia coli [15],2 - 4
same,Activity,Escherichia coli [16],Active
same,Ratio,[1],160
same,MIC,Acinetobacter baumannii,> 16 µg/mL
same,MIC,Escherichia coli [3],0.2 µg/mL
same,MIC,Morganella morganii,> 16 µg/mL
same,MIC,Klebsiella pneumoniae,> 16 µg/mL
same,MIC,Escherichia coli [17],0.2 µg/mL
same,MIC,Bacillus cereus,> 16 µg/mL
same,MIC,Escherichia coli [18],10 µg/mL
same,Ratio,Escherichia coli [19],2 - 4
same,MIC,Bacillus subtilis,> 16 µg/mL
same,Ratio,Escherichia coli [20],10 - 100
same,MIC,Escherichia coli [21],10 µg/mL
same,MIC,Escherichia coli [5],0.1 µg/mL
same,MIC,Escherichia coli [6],0.1 µg/mL
same,MIC,Enterococcus faecium,> 16 µg/mL
same,IC50,DNA gyrase,0.052 µM
same,MIC,Escherichia coli [22],16 µg/mL
same,Ratio,Escherichia coli [23],10 - 100
same,MIC,Escherichia coli [24],8 µg/mL
same,MIC,Escherichia coli [7],0.1 µg/mL
same,MIC,Escherichia coli [25],0.2 µg/mL
same,MIC,[26],> 16 µg/mL
same,Ratio,Escherichia coli [27],2 - 4
same,MIC,Shigella flexneri,8 µg/mL
same,MIC,Escherichia coli [28],> 10 µg/mL
same,MIC,Pseudomonas aeruginosa,> 16 µg/mL
same,MIC,Escherichia coli [29],10 µg/mL
same,MIC,Enterococcus faecalis,> 16 µg/mL
same,MIC,Escherichia coli [30],10 µg/mL
same,Ratio,Escherichia coli [31],8
same,Ratio,Escherichia coli [32],2 - 4
same,Ratio,Escherichia coli [33],10 - 100
same,MIC,Escherichia coli [34],0.2 µg/mL
same,MIC,Klebsiella aerogenes,> 16 µg/mL
same,MIC,Escherichia coli [35],16 µg/mL
same,Ratio,Escherichia coli [36],10 - 100
same,MIC,Streptococcus agalactiae,> 16 µg/mL
same,MIC,Escherichia coli [37],1 µg/mL
same,Ratio,Escherichia coli [38],2 - 4
same,MIC,Escherichia coli [39],0.4 µg/mL
same,MIC,Escherichia coli [10],0.1 µg/mL
same,MIC,Escherichia coli [11],> 16 µg/mL
same,inhibition,[40],inactive
same,Ratio,Escherichia coli [41],2 - 4
same,MIC,Streptococcus pyogenes,> 16 µg/mL
same,Ratio,Escherichia coli [42],2 - 4
same,MIC,Salmonella typhimurium,2 µg/mL
same,MIC,Escherichia coli [43],0.4 µg/mL
same,MIC,Escherichia coli [44],0.1 µg/mL
